One data set is described as follows: in vivo. Particulars: Beagle, dog, po, 5 mg/kg.
The species entered for another data set is Canis familiaris. The settings on record: dog, in vivo, po, 5 mg/kg.
The test system of the next data set is Liver microsomes. Briefly: Intrinsic clearance in human liver microsomes. The class given is ADME, Microsome.
A further data set has as its target Cytochrome P450 3A4 (Homo sapiens, UniProt P08684). Briefly: Inhibition of human recombinant CYP3A4-mediated oxidation of 7-benzyloxyquinoline.

The record followed here is ChEMBL document CHEMBL1154226, “Synthesis and evaluation of inhibitors of cytochrome P450 3A (CYP3A) for pharmacokinetic enhancement of drugs” (Bioorg Med Chem Lett, 2009).

SMILES strings stand for the structures.

Chain of Cytochrome P450 3A4 (P08684 whole entry): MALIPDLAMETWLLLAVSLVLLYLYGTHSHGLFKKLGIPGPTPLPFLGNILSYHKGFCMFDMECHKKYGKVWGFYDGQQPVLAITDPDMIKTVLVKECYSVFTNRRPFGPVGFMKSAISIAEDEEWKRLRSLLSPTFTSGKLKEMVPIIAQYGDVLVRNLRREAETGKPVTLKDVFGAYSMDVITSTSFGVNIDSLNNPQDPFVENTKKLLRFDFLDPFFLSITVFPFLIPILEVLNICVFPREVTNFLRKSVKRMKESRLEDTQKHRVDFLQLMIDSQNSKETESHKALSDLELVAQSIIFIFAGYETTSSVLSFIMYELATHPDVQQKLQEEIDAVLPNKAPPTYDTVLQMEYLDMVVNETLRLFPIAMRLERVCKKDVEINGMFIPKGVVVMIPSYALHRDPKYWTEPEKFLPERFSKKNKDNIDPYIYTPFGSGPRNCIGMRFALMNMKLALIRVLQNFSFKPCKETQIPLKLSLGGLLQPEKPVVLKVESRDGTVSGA

`O=C(NC(Cc1ccccc1)CN(CC(Cc1ccccc1)NC(=O)OCc1cncs1)CC(Cc1ccccc1)NC(=O)OCc1cncs1)OCc1cncs1` (stereo not given): the Cmax (in general, the maximum level reached in the sampled fluid or tissue) in “in vivo” is 30 ng/mL. In the data set listed under Canis familiaris, this compound yielded an AUC of 0.06 µg/mL. Besides, the IC50 (as a rule, the point on the concentration scale where inhibition reaches its midpoint) in the data set with Liver microsomes came out at 54 nM.

`CCN(C[C@H](Cc1ccccc1)NC(=O)OCc1cnc[nH]1)C[C@H](Cc1ccccc1)NC(=O)OCc1cnc[nH]1`: the IC50 at Cytochrome P450 3A4 stood at 348 nM.

Regarding `CCN(C[C@H](CC(C)C)NC(=O)OCc1cncs1)C[C@H](CC(C)C)NC(=O)OCc1cncs1`, at Cytochrome P450 3A4, the IC50 was determined as 136 nM.

Turning to `CCN(C[C@H](Cc1ccccc1)NC(=O)OCc1cccs1)C[C@H](Cc1ccccc1)NC(=O)OCc1cccs1`, the IC50 on Cytochrome P450 3A4 stood at 741 nM.

`CCN(C[C@H](Cc1ccccc1)NC(=O)OCc1cncs1)C[C@H](Cc1ccccc1)NC(=O)OCc1cncs1`: the concentration in “in vivo” peaked (Cmax) at 610 ng/mL. Further, the AUC in the data set filed under Canis familiaris was 1.38 µg/mL.

On to `CCN(CC(CC(=O)OC)NC(=O)OCc1cncs1)CC(CC(=O)OC)NC(=O)OCc1cncs1` (stereo not given), for which, at Cytochrome P450 3A4, the IC50 was 88 nM.

As to `CCN(CC(CC1CCCCC1)NC(=O)OCc1cncs1)CC(CC1CCCCC1)NC(=O)OCc1cncs1` (stereo not given), on Cytochrome P450 3A4, the half-maximal inhibitory concentration (IC50) worked out at 66 nM.

For the compound `CCN(C[C@H](Cc1ccccc1)NC(=O)OCc1cnco1)C[C@H](Cc1ccccc1)NC(=O)OCc1cnco1`, at Cytochrome P450 3A4, the IC50 turned out to be 274 nM.

Turning to `CCN(CCNC(=O)OCc1cncs1)CCNC(=O)OCc1cncs1`, the IC50 at Cytochrome P450 3A4 was over 3000 nM.

`CC(C)c1nc(CN(C)C(=O)N[C@H](C(=O)N[C@@H](Cc2ccccc2)C[C@H](O)[C@H](Cc2ccccc2)NC(=O)OCc2cncs2)C(C)C)cs1` [RITONAVIR]: the highest level in “in vivo” (Cmax) was 1320 ng/mL. The compound further had an AUC in the data set filed under Canis familiaris of 2.19 µg/mL. The IC50 with Liver microsomes amounted to 40 nM.
